Measurements: US12404246B1, “2-aminomethylimidazole mimics of NS4A and their effect thereof on hepatitis C virus NS3 protease” (King Abdulaziz University, priority 2024, dated 2025)

Columns and labels:
[1] = molecular target: T1, HCV NS3 domain of genotype 4a (Hepatitis C virus genotype 4a, UniProt O39929); assay: Binding assay by Differential Static Light Scattering (DSLS): aggregation temperature of NS3; conditions: for ΔTagg (aggregation temperature shift of NS3): NS3 domain 15.0 μM with equimolar compound, shift against NS3 alone
T1 construct: NS3 protease domain 1-181 aa+N-terminal T7 tag and C-terminal His tag; T7 tag (N); made in house; host or cells: E. coli Rosette (DE3) pLysS
Source text: In an embodiment, DSLS (Senisterra, Markin et al. 2006) is a preferred method to compare the relative binding potency for binding of a compound of Formula I with HCV NS3. DSLS measure the proteins aggregation temperature (Tagg) as an indicator of its stability (Davis, Walker et al. 2010). It is known that the binding of small molecules to proteins causes shifts of the aggregation temperature (ΔTagg) to higher temperature (Shahul Hameed, Haider et al. 2018). One aspect of this invention is using ΔTagg determination as a method to determine the potency of binding of compounds belonging to formula I to the HCV NS3 protease, in comparison to the native NS4A.
The NS3 domain (15.0 μM), alone or mixed with an equimolar equivalent of tested compound or the NS4A, was added to a binding buffer (20.0 mM HEPES, 10.0 mM DTT, 200 mM NaCl, pH 7.60) to a final volume 100 μL. The mixture was incubated at room temperature with gentle shaking for 2 h. Afterwards, 10 μL of the mixture was transferred into a clear bottomed Nunc 384-well plate and covered by 10 μL paraffin oil to minimize evaporation. Protein aggregation was monitored by tracking the change in scattered light that was detected by a charged coupled device (CCD) camera. Snapshot images of the plate were taken every 0.5° C. The pixel intensities in a preselected region of each well were integrated using image analysis software to generate a value representative of the total amount of scattered light in that region. These intensities were then plotted against temperature for each sample well and fitted to obtain the aggregation temperature (Tagg). Aggregation was monitored and analyzed to assess the effect of NS4A and its synthetic analogues on the stability of the NS3 as an indicator of binding. Each experiment was repeated three times (Triplicate). Statistical analysis was performed using GraphPad Prism v. 8.0® and Instat® v. 3.10 software. The Tagg for the compound was only considered if its […] of the calculated Tagg value.
Each experiment was run as triplicate (Experiment 1, 2 and 3) and the standard deviations (ST.DEV.) were calculated. (results table FIG. 31).

HCV NS3 = HCV NS3 (Hepatitis C virus genotype 4a, UniProt O39929); conditions: mixed with a substrate peptide; cited from earlier work

| SMILES | ΔTagg (aggregation temperature shift of NS3) [1] | other results |
| --- | --- | --- |
| CCCCCCNCc1ncc(C(=O)NCc2ccccn2)[nH]1 [Comp 3, 2-((hexylamino)methyl)-N-(pyridin-2-ylmethyl)-1H-imidazole-5-carboxamide] | 0.47 °C |  |
| CNC(=O)CNC(=O)c1cnc(CNCCNC(C)=O)[nH]1 [Comp 8, 2-(((2-acetamidoethyl)amino)methyl)-N-(2-(methylamino)-2-oxoethyl)-1H-imidazole-5-carboxamide] | 0.48 °C |  |
| CCCCCCNCc1nc(C(=O)NCc2ccccn2)c[nH]1 [Comp 9, 2-((hexylamino)methyl)-N-(pyridin-2-ylmethyl)-1H-imidazole-4-carboxamide] | 0.91 °C |  |
| O=C(NCc1ccccn1)c1cnc(CNCCOC2CCCCC2)[nH]1 [Comp 10, 2-(((2-(cyclohexyloxy)ethyl)amino)methyl)-N-(pyridin-2-ylmethyl)-1H-imidazole-5-carboxamide] | 0.43 °C |  |
| CC(C)CCCCCNCc1ncc(C(=O)NCc2ccccn2)[nH]1 [Comp 12, 2-(((6-methylheptyl)amino)methyl)-N-(pyridin-2-ylmethyl)-1H-imidazole-5-carboxamide] | 0.57 °C |  |
| CC(=O)NCCNCc1nc(C(=O)NCc2ccccn2)c[nH]1 [Comp 13, 2-(((2-acetamidoethyl)amino)methyl)-N-(pyridin-2-ylmethyl)-1H-imidazole-5-carboxamide] | 1.35 °C | affinity towards the HCV NS3 protein compared to the native viral peptide cofactor NS4A ([1]; DSLS, FIG. 30-32): equal or higher affinity; Tagg (aggregation temperature of NS3 mixed with the substance) ([1]; NS3 domain 15.0 μM with equimolar substance, incubated 2 h, triplicate, NS3 alone Tagg 43.22° C.): 44.40 °C; ΔTagg higher than that of the HCV NS4A ([1]; relative to the shift caused by NS4A): 14% |
| CCCCCCNC(=O)c1ncc(C(=O)NCCCCNC(=N)N)[nH]1 [N5-(4-guanidinobutyl)-N2-n-hexyl-1H-imidazole-2,5-dicarboxamide] |  | inhibition of HCV NS3 protease function (HCV NS3): able to inhibit the HCV NS3 from functioning as a protease |
